Source: ChEMBL document CHEMBL5550147, “Supramolecular prodrug of SN38 based on endogenous albumin and SN38 prodrug modified with semaglutide side chain to improve the tumor distribution” (Bioorg Med Chem, 2024)
Values belong to the compound of their own block, whether it stands above or below them. The source made the active and inactive calls. The calls are words filed in the database; no cut-off is given here.

Legend:
[1] = Drug distribution in lung of nude mouse xenografted with human HT-29 cells at 15 mg/kg, iv measured for 1 to 48 hrs by HPLC analysis; assay type: ADME, organism-based; details: in vivo, time 1-48 hrs
HT-29 [2] = experiment: Anti-tumor activity against human HT-29 cells xenografted in nude mouse at 15 mg/kg, iv measured for 35 days relative to control; assay type: functional; details: HT-29, 840 h, time 35 day, read-out: TGI
[3] = Stability of compound in PBS at pH 6.5 at 50 uM by HPLC analysis; assay type: physicochemical; details: buffer, pH 6.5, 50 µM
[4] = Stability of compound in PBS at pH 7.4 at 50 uM by HPLC analysis; assay type: physicochemical; details: buffer, pH 7.4, 50 µM
[5] = Stability in mouse plasma assessed as half life by HPLC analysis; assay type: ADME, cell-free
[6] = Prodrug conversion in mouse plasma assessed as drug release incubated for 24 hrs by HPLC analysis; assay type: ADME, cell-free
A549 = experiment: Cytotoxicity against human A549 cells incubated for 48 hrs by MTT assay; assay type: functional, cell-based
HepG2 = experiment: Cytotoxicity against human HepG2 cells incubated for 48 hrs by MTT assay; assay type: functional, cell-based
HT-29 [7] = experiment: Cytotoxicity against human HT-29 cells incubated for 48 hrs by MTT assay; assay type: functional, cell-based
MG-63 = experiment: Cytotoxicity against human MG-63 cells incubated for 48 hrs by MTT assay; assay type: functional, cell-based
MIA PaCa-2 = experiment: Cytotoxicity against human MIA PaCa-2 cells incubated for 48 hrs by MTT assay; assay type: functional, cell-based
[8] = Cmax in BALB/c mouse at 28 mg/kg, iv measured for 1 to 72 hrs by HPLC analysis; assay type: ADME, organism-based; details: in vivo, time 1-72 hrs
[9] = Half life in BALB/c mouse at 28 mg/kg, iv measured for 1 to 72 hrs by HPLC analysis; assay type: ADME, organism-based; details: in vivo, time 1-72 hrs
[10] = Volume of distribution in BALB/c mouse at 28 mg/kg, iv measured for 1 to 72 hrs by HPLC analysis; assay type: ADME, organism-based; details: in vivo, time 1-72 hrs
[11] = Clearance in BALB/c mouse at 28 mg/kg, iv measured for 1 to 72 hrs by HPLC analysis; assay type: ADME, organism-based; details: in vivo, time 1-72 hrs
[12] = AUC (0 to infinity) in BALB/c mouse at 28 mg/kg, iv measured for 1 to 72 hrs by HPLC analysis; assay type: ADME, organism-based; details: in vivo, time 1-72 hrs
[13] = Drug distribution in lung of nude mouse xenografted with human HT-29 cells at 17.9 mg/kg, iv measured for 1 to 48 hrs by HPLC analysis; assay type: ADME, organism-based; details: in vivo, time 1-48 hrs
[14] = Drug accumulation in lung of nude mouse xenografted with human HT-29 cells assessed as fold change in free SN38 at 28 mg/kg, iv measured for 50 hrs by HPLC analysis relative to Irinotecan; assay type: ADME, organism-based; details: in vivo
[15] = Drug accumulation in human HT-29 cells xenografted in nude mouse assessed as fold increase at 28 mg/kg, iv measured for 1 hr by HPLC analysis relative to Irinotecan; assay type: ADME, organism-based; details: in vivo
[16] = Drug accumulation in human HT-29 cells xenografted in nude mouse assessed as fold increase at 28 mg/kg, iv measured for 6 hrs by HPLC analysis relative to Irinotecan; assay type: ADME, organism-based; details: in vivo
[17] = Drug accumulation in human HT-29 cells xenografted in nude mouse assessed as fold increase at 28 mg/kg, iv measured for 24 hrs by HPLC analysis relative to Irinotecan; assay type: ADME, organism-based; details: in vivo
[18] = Drug accumulation in human HT-29 cells xenografted in nude mouse assessed as fold increase at 28 mg/kg, iv measured for 48 hrs by HPLC analysis relative to Irinotecan; assay type: ADME, organism-based; details: in vivo
HT-29 [19] = experiment: Anti-tumor activity against human HT-29 cells xenografted in nude mouse at 28 mg/kg, iv measured for 35 days relative to control; assay type: functional; details: HT-29, 840 h, time 35 day, read-out: TGI
[20] = Toxicity in nude mouse xenografted with human HT-29 cells assessed as body weight change at 28 mg/kg, iv measured for 35 days; assay type: organism-based; details: in vivo, 840 h, time 35 day

Drug uptake [1]: Active
SMILES: CCc1c2c(nc3ccc(OC(=O)N4CCC(N5CCCCC5)CC4)cc13)-c1cc3c(c(=O)n1C2)COC(=O)[C@]3(O)CC [IRINOTECAN]
inhibition in vivo at 15 mg/kg (HT-29 [2]): 62.3%

Stability [3]: Stable
Stability [4]: Stable
half-life [5]: 14 h
Drug metabolism [6]: Metabolite_Detected
Cmax [8]: 3670 ng/mL
half-life [9]: 4.37 h
Vd [10]: 0.191 L
CL [11]: 0.517 mL/min/kg
AUC [12]: 23130 ng·h/mL
Drug uptake [13]: Active
fold change (FC) [14]: 0.3
fold change (FC) [15]: 2.5
fold change (FC) [16]: 2.1
fold change (FC) [17]: 1.6
fold change (FC) [18]: 7.8
SMILES: CCc1c2c(nc3ccc(O)cc13)-c1cc3c(c(=O)n1C2)COC(=O)[C@@]3(CC)OC(=O)CNC(=O)CCCCCCCCCCCCCCCCC(=O)O
Activity (A549): Active
Activity (HepG2): Active
Activity (HT-29 [7]): Active
Activity (MG-63): Active
Activity (MIA PaCa-2): Active
inhibition in vivo at 28 mg/kg (HT-29 [19]): 71%
Activity [20]: Non-Toxic
